Data from patent US9630947B2, “Therapeutic compounds and related methods of use” (OTSUKA PHARMACEUTICAL CO., LTD., priority 2009, dated 2017).

Target: T1, purified STEP46 enzyme (Homo sapiens, UniProt P54829)
T1 sequence (P54829 1-565): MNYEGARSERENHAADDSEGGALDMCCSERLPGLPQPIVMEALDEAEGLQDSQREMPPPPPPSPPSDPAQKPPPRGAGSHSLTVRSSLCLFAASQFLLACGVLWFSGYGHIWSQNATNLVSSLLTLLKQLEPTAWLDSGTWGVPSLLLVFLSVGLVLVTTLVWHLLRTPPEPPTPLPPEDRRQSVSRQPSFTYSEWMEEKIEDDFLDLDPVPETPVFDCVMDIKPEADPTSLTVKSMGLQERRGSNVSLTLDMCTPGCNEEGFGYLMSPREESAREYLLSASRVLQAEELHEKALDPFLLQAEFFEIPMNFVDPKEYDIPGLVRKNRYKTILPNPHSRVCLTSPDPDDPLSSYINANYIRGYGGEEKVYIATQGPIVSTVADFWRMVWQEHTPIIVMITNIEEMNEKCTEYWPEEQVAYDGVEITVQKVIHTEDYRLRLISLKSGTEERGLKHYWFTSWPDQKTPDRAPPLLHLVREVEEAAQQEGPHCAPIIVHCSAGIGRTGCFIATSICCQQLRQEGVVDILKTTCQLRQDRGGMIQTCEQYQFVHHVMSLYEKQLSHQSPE
Test: STEP46 biochemical assay (DiFMUP fluorescence phosphatase assay)
Details: DiFMUP 10 μM, read-out: STEP IC50
Procedure: STEP46 Biochemical Assays
Serial dilutions of compounds were performed in 100% DMSO and 1 uL of compounds were dispensed into 384-well black polystyrene plates (Corning, NY). Compounds were incubated with 24 uL of buffer containing 50 mM Hepes, 1 mM DTT, 0.02% Brij35, 1 ng/well purified STEP46 enzyme for 30 min at room temperature. The reaction was initiated by addition of 25 uL of DiFMUP (6, 8-difluoro-4-methylumbelliferyl phosphate) (InVitrogen, CA) with a final concentration of 10 μM and incubated at 27° C. for 90 min. Final DMSO concentration is 2%. Plates were read with florescence intensity at excitation/emission of 360/460 nm using a PheraStar plate reader (BMG Labtech, NC).
Data were expressed as percentage (%) inhibition of enzyme activity. 0% inhibition is defined as the RFUs (relative fluorescence units) in the absence of compounds and 100% inhibition is defined as RFUs in the absence of STEP46 enzyme. IC50 values of compounds with inhibitory activity against STEP46 were determined by GraphPad Prism (version 4.03) using four parameter logistic equation. Some compounds act as activators. For compounds showing STEP46 enzymatic activation, data are represented as percentage of inhibition but with negative values at three representative concentrations (25, 50 and 100 uM).

Work on COc1ccc2nc(-c3cccnc3)nc(Nc3ccc4sc(=O)[nH]c4c3)c2c1 [Compound 326] yielded an IC50 of 1 to 10 µM.
Work on COc1ccc2nc(-c3cccnc3)nc(Nc3nc(-c4ccc(Cl)cc4)cs3)c2c1 [Compound 400] yielded an IC50 of 1 to 10 µM.
In the case of COc1ccc2nc(-c3cccnc3)nc(Oc3ccc(Cl)c(Cl)c3)c2c1 [Compound 344], the IC50 is reported as 1 to 10 µM.
Fc1ccc(Nc2nc(-c3cccnc3)nc3cc(-c4cccnc4)ccc23)cc1Cl [Compound 677] was tested, and the IC50 was > 10 µM.
CNc1c(-c2cc(F)cc(F)c2)ccc2nc(-c3cccnc3)nc(C)c12 [Compound 1422] showed an IC50 of 1 to 10 µM.
CNc1nc(-c2cccnc2)nc2cc(-c3ccc(C#N)cc3)ccc12 [Compound 1365] showed an IC50 of 1 to 10 µM.
With COc1ccc2nc(-c3cccnc3)nc(Nc3nc(-c4ccccc4Br)cs3)c2c1 [Compound 451] the IC50 was < 1 µM.
With COc1ccc2nc(-c3cccnc3)nc(Nc3ccccc3C(=O)NCc3occc3C)c2c1 [Compound 901] the IC50 was 1 to 10 µM.
Compound CNc1nc(-c2cccnc2)nc2cc(C)c(-c3ccc(F)c(F)c3)cc12 [Compound 1416] has an IC50 of 1 to 10 µM.
For Cc1ccc(F)c(-c2ccc3nc(-c4cccnc4)nc(Nc4ccc(F)c(Cl)c4)c3c2)c1 [Compound 669], the IC50 was < 1 µM.
For CCOc1ccc2nc(-c3cccnc3)nc(Nc3ccc4ccsc4c3)c2c1 [Compound 315], the IC50 was 1 to 10 µM.
In the case of CCOc1ccc2nc(-c3cccnc3)nc(Nc3nc(-c4cc(F)ccc4F)cs3)c2c1 [Compound 471], the IC50 is reported as 1 to 10 µM.
CCOC(=O)c1sc(Nc2nc(-c3cccnc3)nc3ccc(OC)cc23)nc1-c1ccccc1 [Compound 466] was tested, and the IC50 was 1 to 10 µM.
In the case of COc1ccc2nc(-c3cccnc3)nc(Nc3ccccc3C(=O)NC(C)c3cccc(C(F)(F)F)c3)c2c1 (stereo not shown) [Compound 888], the IC50 is reported as > 10 µM.
With Nc1nc(-c2cccnc2)nc2cc(-c3cc(F)ccc3F)ccc12 [Compound 1395] the IC50 was 1 to 10 µM.
COc1ccc2nc(-c3cccnc3)nc(Nc3cccc(-c4ccccc4)c3)c2c1 [Compound 426] was tested, and the IC50 was > 10 µM.
Work on CNc1nc(-c2cccnc2)nc2ccc(-c3cc(F)c(F)cc3F)cc12 [Compound 1376] yielded an IC50 of 1 to 10 µM.
COc1ccc2nc(-c3cnccn3)nc(Nc3cccc(C#N)c3)c2c1 [Compound 1193] showed an IC50 of 1 to 10 µM.
For Fc1ccc(Nc2nc(-c3cccnc3)nc3ccc(-c4cncnc4)cc23)cc1Cl [Compound 652], the IC50 was < 1 µM.
N#Cc1ccc(-c2ccc3c(Nc4ccc(F)c(Cl)c4)nc(-c4cccnc4)nc3c2)cc1 [Compound 690] gave an IC50 of 1 to 10 µM.
With CCOc1ccc2nc(-c3cccnc3)nc(Nc3nc(-c4ccc(F)c(F)c4)cs3)c2c1 [Compound 468] the IC50 was < 1 µM.
With COc1ccc2nc(-c3cccnc3)nc(Nc3nnc(-c4ccc(Cl)cc4)s3)c2c1 [Compound 412] the IC50 was < 1 µM.
COc1cc(-c2ccc3nc(-c4cccnc4)nc(Nc4ccc(F)c(Cl)c4)c3c2)ccc1C [Compound 670] was tested, and the IC50 was < 1 µM.
CNc1nc(-c2cccnc2)nc2ccc(-c3ccc(F)cc3F)c(C)c12 [Compound 1286] showed an IC50 of 1 to 10 µM.
CNc1nc(-c2cccnc2)nc2cc(-c3ccc(F)cc3)c(C)cc12 [Compound 1404] was tested, and the IC50 was > 10 µM.
CN(C)c1nc(-c2cccnc2)nc2ccc(-c3cccc(F)c3)cc12 [Compound 1324] showed an IC50 of 1 to 10 µM.
For Fc1cccc(-c2ccc3nc(-c4cccnc4)nc(NC4CCCCC4)c3c2)c1F [Compound 1516], the IC50 was > 10 µM.
For NC(=O)c1ccccc1Nc1nc(-c2cccnc2)nc2cc(-c3cccc(F)c3F)ccc12 [Compound 705], the IC50 was < 1 µM.
In the case of CNc1nc(-c2cccnc2)nc2ccc(-c3cc(OC)cc(OC)c3)cc12 [Compound 1357], the IC50 is reported as 1 to 10 µM.
CCOc1ccc2nc(-c3cccnc3)nc(Nc3nc(-c4cccc(F)c4F)cs3)c2c1 [Compound 470] showed an IC50 of 1 to 10 µM.
Compound Fc1ccc(Nc2nc(-c3cccnc3)nc3ccc(-c4cccs4)cc23)cc1Cl [Compound 649] has an IC50 of 1 to 10 µM.
Cc1cccc(CNc2nc(-c3cccnc3)nc3ccc(-c4ccc(F)cc4F)cc23)n1 [Compound 1437] was tested, and the IC50 was 1 to 10 µM.
In the case of COc1ccc2nc(-c3cccnc3)nc(Nc3nnc(-c4ccc(F)cc4)s3)c2c1 [Compound 423], the IC50 is reported as 1 to 10 µM.
With COc1ccc2nc(-c3cccnc3)nc(Nc3nc(-c4cccc(Br)c4)cs3)c2c1 [Compound 447] the IC50 was 1 to 10 µM.
Compound CNc1nc(-c2cccnc2)nc2ccc(-c3ccc4sccc4c3)cc12 [Compound 1341] has an IC50 of 1 to 10 µM.
With FC(F)Oc1cccc(Nc2nc(-c3cnccn3)nc3cc(Cl)ccc23)c1 [Compound 1145] the IC50 was 1 to 10 µM.
For CN(C)c1ccc(-c2ccc3c(Nc4ccc(F)c(Cl)c4)nc(-c4cccnc4)nc3c2)cc1 [Compound 694], the IC50 was < 1 µM.
Work on CNc1nc(-c2cccnc2)nc2c(C)c(-c3ccccc3F)ccc12 [Compound 1446] yielded an IC50 of 1 to 10 µM.
COc1ccc2nc(-c3cccnc3)nc(Nc3ccccc3C(=O)NC3CCc4ccccc43)c2c1 (stereo not shown) [Compound 898] was tested, and the IC50 was > 10 µM.
In the case of CCOc1ccc2nc(-c3cccnc3)nc(Nc3ccc4c(c3)NC(=O)CO4)c2c1 [Compound 336], the IC50 is reported as < 1 µM.
Compound COc1ccc2nc(-c3cccnc3)nc(Nc3cccc(-c4ccc(Cl)cc4)c3)c2c1 [Compound 427] has an IC50 of 1 to 10 µM.
In the case of Nc1nc(-c2cccnc2)nc2ccc(-c3ccccc3Cl)cc12 [Compound 1328], the IC50 is reported as > 10 µM.
For COc1ccc2nc(-c3cccnc3)nc(Nc3nc(-c4cc(F)ccc4F)cs3)c2c1 [Compound 458], the IC50 was < 1 µM.
Compound COc1ccc2nc(-c3cnccn3)nc(Nc3ccc(F)c(Cl)c3)c2c1 [Compound 1191] has an IC50 of 1 to 10 µM.
With Cc1cc(Cl)cc2c(Nc3ccccc3C(N)=O)nc(-c3cnccn3)nc12 [Compound 1226] the IC50 was 1 to 10 µM.
CNc1nc(-c2cccnc2)nc2c(C)cc(-c3ccc(C#N)cc3)cc12 [Compound 1279] gave an IC50 of 1 to 10 µM.
Work on Fc1ccc(Nc2nc(-c3cccnc3)nc3ccc(-c4ccccc4)cc23)cc1Cl [Compound 631] yielded an IC50 of 1 to 10 µM.
COc1ncc(-c2ccc3c(Nc4ccc(F)c(Cl)c4)nc(-c4cccnc4)nc3c2)cn1 [Compound 679] was tested, and the IC50 was < 1 µM.
Compound CNc1nc(-c2cccnc2)nc2cc(-c3ccccc3C#N)ccc12 [Compound 1363] has an IC50 of 1 to 10 µM.
CNc1nc(-c2cccnc2)nc2cc(C)c(-c3ccc(F)cc3F)cc12 [Compound 1415] was tested, and the IC50 was > 10 µM.
Fc1ccc(Nc2nc(-c3cccnc3)nc3cc(-c4cccc(F)c4F)ccc23)cc1Cl [Compound 697] gave an IC50 of 1 to 10 µM.
With CNc1nc(-c2cccnc2)nc2cc(-c3ccccc3Cl)ccc12 [Compound 1352] the IC50 was > 10 µM.
CCNC(=O)c1sc(Nc2nc(-c3cccnc3)nc3ccc(OC)cc23)nc1-c1ccccc1 [Compound 1126] showed an IC50 of 1 to 10 µM.
Work on FC(F)Oc1cc(Cl)cc(Nc2nc(-c3cccnc3)nc3ccccc23)c1 [Compound 1213] yielded an IC50 of 1 to 10 µM.
With Clc1ccc(Nc2nc(-c3cnccn3)nc3ccccc23)cc1Cl [Compound 1218] the IC50 was 1 to 10 µM.
In the case of COc1ccc2nc(-c3cccnc3)nc(Nc3nc(-c4ccc(F)c(F)c4)cs3)c2c1 [Compound 445], the IC50 is reported as < 1 µM.
With CNc1nc(-c2ccncc2)nc2ccc(-c3ccc(F)cc3F)cc12 [Compound 1467] the IC50 was 1 to 10 µM.
COc1cncc(-c2ccc3nc(-c4cccnc4)nc(Nc4ccc(F)c(Cl)c4)c3c2)c1 [Compound 660] was tested, and the IC50 was < 1 µM.
For COc1ccc2nc(-c3cccnc3)nc(Nc3ccc(-c4ccc(Cl)cc4)cc3)c2c1 [Compound 424], the IC50 was 1 to 10 µM.
Fc1ccc(-c2ccc3c(Nc4cccc(OC(F)(F)F)c4)nc(-c4cccnc4)nc3c2)cc1 [Compound 708] gave an IC50 of 1 to 10 µM.
Work on CCOc1ccc2nc(-c3cncnc3)nc(Nc3ccccc3C(N)=O)c2c1 [Compound 1171] yielded an IC50 of 1 to 10 µM.
In the case of CC(=O)c1ccc(-c2ccc3nc(-c4cccnc4)nc(N)c3c2)cc1 [Compound 1327], the IC50 is reported as > 10 µM.
In the case of CNc1nc(-c2ccnnc2)nc2ccc(-c3ccc(F)cc3F)cc12 [Compound 1238], the IC50 is reported as 1 to 10 µM.
Work on COc1ccc2nc(-c3cccnc3)nc(Nc3ccccc3C(=O)NCc3ccc4c(c3)CCC4)c2c1 [Compound 900] yielded an IC50 of 1 to 10 µM.
For CNc1nc(-c2cccnc2)nc2c(C)cc(-c3ccccc3C#N)cc12 [Compound 1284], the IC50 was 1 to 10 µM.
For Clc1ccc(Nc2nc(-c3ccnnc3)nc3ccccc23)cc1Cl [Compound 1215], the IC50 was < 1 µM.
CNc1nc(-c2cncnc2)nc2ccc(-c3cccc(F)c3F)cc12 [Compound 1239] was tested, and the IC50 was 1 to 10 µM.
In the case of COc1ccc2nc(-c3cccnc3)nc(Nc3c(F)cccc3Cl)c2c1 [Compound 934], the IC50 is reported as < 1 µM.
Cc1cc(Cl)cc2c(Nc3cc(Cl)cc(Cl)c3)nc(-c3cnccn3)nc12 [Compound 1229] gave an IC50 of 1 to 10 µM.
COc1ccc2nc(-c3cccnc3)nc(Nc3ccc(Br)cc3)c2c1 [Compound 421] was tested, and the IC50 was > 10 µM.
